Source: BindingDB's records for patent US20240217978 (Chong Kun Dang Pharmaceutical, 2024)

Target: Adenosine receptor A2a (Homo sapiens, UniProt P29274)
Experiment: Evaluation of A2a Receptor Binding Affinity
Method: A radioligand binding test was conducted by using [3H]-NECA (5′-N-[adenine-2,8-3H]-ethylcarboxamidoadenosine) and an adenosine A2a membrane. As the adenosine A2a membrane, a cell membrane prepared from HEK-293 cells transfected with human adenosine A2a receptor was used. The membrane used for the test was prepared by incubating with a radioligand until equilibrium was reached. In order to separate the radioligand-bound membrane, the unbound radioligand was separated by using Packard filtermate Harverster and glass filter plates.10 μL of test compound dissolved in binding buffer (50 mM Tris, 10 mM MgCl2, 1 mM EDTA pH 7.4) and 20 μL of [3H]-NECA (final concentration of 37 nM) or reference inhibitor was mixed with 20 μL of A2a membrane in an unbound 96-well plate and incubated at room temperature for one hour. Prior to filtration, a 96-well harvest filter plate was coated with 0.33% polyethylenimine for 30 minutes and then washed with assay buffer. The binding reaction was transferred to the filter plate and washed three times with wash buffer. The dish was then dried, scintillant was added, and radioactivity was counted in a scintillation counter (Topcount NXT, Packard).

Chain of Adenosine receptor A2a (P29274 whole entry): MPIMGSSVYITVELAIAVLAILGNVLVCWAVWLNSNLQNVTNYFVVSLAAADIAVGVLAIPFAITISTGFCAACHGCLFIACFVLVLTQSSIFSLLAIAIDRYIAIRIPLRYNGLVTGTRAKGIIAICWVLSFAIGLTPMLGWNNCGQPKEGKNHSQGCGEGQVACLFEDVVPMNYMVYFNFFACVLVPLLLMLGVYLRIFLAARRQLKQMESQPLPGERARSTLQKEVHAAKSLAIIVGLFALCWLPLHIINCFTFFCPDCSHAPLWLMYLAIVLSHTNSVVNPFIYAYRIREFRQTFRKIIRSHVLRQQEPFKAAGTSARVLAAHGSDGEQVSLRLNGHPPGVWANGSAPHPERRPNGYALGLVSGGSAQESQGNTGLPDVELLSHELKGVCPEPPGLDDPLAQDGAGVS

| IC50 [nM] | Structure (SMILES) |
| --- | --- |
| 10 | CCNC(=O)N1CCN(C(=O)[C@@H]2CCCN2c2nc(N)n3nc(-c4ccco4)nc3n2)CC1 [US20240217978, Example 115] |
| 2 | Nc1nc(N2CCC[C@H]2C(=O)N2CCC(C(=O)Nc3cccc(F)c3)CC2)nc2nc(-c3ccco3)nn12 [US20240217978, Example 130] |
| 12 | Nc1nc(N2CCC[C@H]2C(=O)N2CCCN(c3ncccn3)CC2)nc2nc(-c3ccco3)nn12 [US20240217978, Example 277] |
